The values below come from US8778954B2, “Phenylpyridine derivative and medicinal agent comprising same” (Kowa Company, Ltd., priority 2009, dated 2014).

The EC50 is the concentration at which the effect is half-maximal. Lower therefore signals greater potency.

The subject of assay [1] is db/db mice. Briefly: Impaired glucose tolerance improving activity in type 2 diabetes model mouse. It is filed as in vivo. Particulars: oral once a day, Example 23 10 mg/kg, Example 21 30 mg/kg, telmisartan 30 mg/kg. The method, then: By using 7-week old db/db mice, the body weight and the plasma glucose concentration of each mouse were measured before administration of the medicine, and group separation was performed by blocking assignment so that there was no variation of these values between respective groups. Solvent control (0.5% MC), 5 mg/kg rosiglitazone, 30 mg/kg telmisartan, 10 mg/kg of the compound of Example 23, and 30 mg/kg of the compound of Example 21 were orally administered iteratively for 4 weeks, once a day. Blood collecting was performed from the orbital vein plexus, and the plasma glucose concentration was measured at 2 weeks after the initiation of the administration. Furthermore, oral glucose tolerance test was performed at 4 weeks after the initiation of the administration. Specifically, the mouse was fasted for 24 hours from the night before the glucose tolerance test, and then a glucose solution was orally administered at a dose of 2 g/kg. The blood was collected from the tail vein of the mouse at 15, 30, 60, and 120 minutes after the administration of the glucose solution, and the concentration of the plasma glucose was measured. The area surrounded with the measured plasma glucose concentration and the time was taken as the area under the curve (AUC), and AUC for 120 minutes after administration of the glucose solution was estimated from the trapezoidal method.
Vehicle, Rosiglitazone, Telmisartan, Compound 23, and Compound 21 in FIGS. 2 and 3 represent solvent control, rosiglitazone, telmisartan, the compound of Example 23, and the compound of Example 21, respectively. The vertical axis of FIG. 2 represents the plasma glucose concentration. The data in FIG. 2 represents individual values and average values of each individual. The vertical axis of FIG. 3 represents the area under the curve surrounded with the plasma glucose concentration and the time (for 120 minutes after administration of the glucose solution). The data in FIG. 3 represents individual values and average values of each individual. […] Such activities were not confirmed for the telmisartan administration group.

In assay [2] the target is T1, human PPARγ2 (Homo sapiens, UniProt P37231).
T1 construct: the amino acids 182 to 505 of human PPARγ2; expressed in transfected cells; host or cells: COS7 cells (African green monkey kidney)
T1 sequence (P37231 182-505): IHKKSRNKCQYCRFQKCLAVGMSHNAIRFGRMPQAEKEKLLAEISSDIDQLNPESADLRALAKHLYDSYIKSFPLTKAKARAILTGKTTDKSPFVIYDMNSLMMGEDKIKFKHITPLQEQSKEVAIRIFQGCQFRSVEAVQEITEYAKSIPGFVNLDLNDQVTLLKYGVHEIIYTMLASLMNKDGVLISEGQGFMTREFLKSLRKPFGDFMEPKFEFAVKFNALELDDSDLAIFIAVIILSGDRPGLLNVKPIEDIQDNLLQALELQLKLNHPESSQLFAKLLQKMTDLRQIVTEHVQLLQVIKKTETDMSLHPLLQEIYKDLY
Put plainly: PPARγ activation activity, Gal4-PPARγ2 LBD luciferase transfection assay using COS7 cells. The format is cell-based. Particulars: Gal4-human PPARγ2 LBD chimera, 16 hours, rosiglitazone = 100%. On the procedure:
The agonistic activity of the compounds of the invention on PPARγ was measured based on the transfection assay using COS7 cells (DS Pharma Biomedical Co., Ltd., Osaka, Japan), which are the cell line derived from the kidney of the African green monkey. COS7 cells were cultured under 5% CO2 concentration, and DMEM medium containing 10% fetal bovine serum, glutamic acid, and antibiotics was used as a medium.
As an expression vector, a chimera in which DNA binding domain of Gal4, which is a yeast transcription factor, and ligand binding domain of human PPARγ2 are fused, i.e., a fused product between the amino acids 1 to 147 of Gal4 transcription factor and the amino acids 182 to 505 of human PPARγ2, was used. Furthermore, as a reporter vector, a firefly luciferase containing five copies of Gal4 recognition sequence in the promoter region was used. Plasmid transfection to the cells was performed according to a method which uses jetPEI (trade name, manufactured by Funakoshi Co., Ltd., Tokyo, Japan). Furthermore, β-galactosidase expression vector was employed as an internal standard.
After the transfection of the cells, the medium was replaced with a DMEM medium (containing 1% serum) added with the test compound, and the cells were further cultured for 16 hours. After that, the luciferase activity and β-galactosidase activity in the cell lysis solution were measured.
For the present test, dimethyl sulfoxide (DMSO) was used for dissolution and dilution of the test compounds, and during the cell treatment, the DMSO concentration in DMEM medium (containing 1% serum) was adjusted to 0.1%. As a positive compound, rosiglitazone (trade name, manufactured by ALEXIS Corporation, Switzerland) was used. The luciferase activity (%) of the test compounds (1 to 30 μmol/L) was calculated when the luciferase activity of rosiglitazone (3 to 10 μmol/L) is 100% and the luciferase activity in the absence of the test compound is 0%. The 50% effective concentration of the test compound (EC50, 50% effect concentration) was calculated by using SAS Preclinical Package Ver 5.0 (trade name, manufactured by SAS institute Japan Co., Tokyo, Japan), which is a statistical analysis program.
EC50 values of these compounds are described in Table 2. […] Under the same condition, the PPARγ activation activity of telmisartan, i.e., EC50, was 1 to 5 μM.

The test system of assay [3] is Zucker diabetic fatty (ZDF) rats. Briefly: Activity for diabetic nephropathy in Zucker diabetic fatty rats. The format is in vivo, rat. The note with it: 3 mg/kg once a day for 15 weeks, FIG. 5. The method, then: By using 8-week old Zucker diabetic fatty (ZDF) rats, the body weight, the elimination amount of urinary total protein (UTP), the plasma triglyceride concentration (TG), and the plasma total cholesterol concentration (TC) of each rat were measured before administration of the medicine, and group separation was performed by blocking assignment so that there was no variation of these values between respective groups. Solvent control (0.5% MC), 3 mg/kg telmisartan, 3 mg/kg of the compound of Example 21, and 3 mg/kg of the compound of Example 23 were administered iteratively for 15 weeks once a day. UTP, TG, and TC were measured according to a general method during the administration period at 4, 8, 12, and 15 weeks after the administration.
Vehicle, Telmisartan, Compound 23, and Compound 21 in FIGS. 4, 5, and 6 represent solvent control, telmisartan, the compound of Example 23, and the compound of Example 21, respectively. The horizontal axis of FIG. 4-1 represents time (weeks after administration), and the vertical axis represents the elimination amount of urinary total protein per 18 hours. The data in FIG. 4-1 represents average values of each individual in each point, wherein -●- represents Vehicle (solvent control), -♦- represents Telmisartan, -▪- represents Compound 23 (the compound of Example 23), and -▴- represents Compound 21 (the compound of Example 21). The vertical axis of FIG. 4-2 represents the elimination amount of urinary total protein per 18 hours. The data in FIG. 4-2 represents individual values and average values of each individual +standard deviation.
The vertical axis of FIG. 5 represents the plasma triglyceride concentration. The data in FIG. 5 represents individual values and average values of each individual.
The vertical axis of FIG. 6 represents the plasma total cholesterol concentration. The data in FIG. 6 represents individual values and average values of each individual.
Furthermore, it was believed that one reason for the potent activity may be related to improving activity of lipid metabolism, and it is believed that the potent activity is attributed to activities other than the angiotensin receptor antagonistic activity.

On to `CCCc1nc2c(C)cc(-c3nc4ccccc4n3C)cc2n1Cc1ccc(-c2ccccc2C(=O)O)cc1` [telmisartan, reference compound], for which the plasma glucose concentration entry in assay [1] (2 weeks after initiation, FIG. 2) is given as “not confirmed”. For the same compound, the “AUC of plasma glucose in the glucose tolerance test (120 minutes after glucose solution)” value in assay [1] (4 weeks, glucose 2 g/kg, FIG. 3) is reported as “not confirmed”. The same compound had an EC50 in assay [2] of 1000 to 5000 nM. The plasma triglyceride concentration entry in assay [3] was “such activity was not found”.
